Test results from patent US6566081B1, “Methods of identifying a compound which modulates the non-transcriptional non-map-kinase induced effects of steroid hormones” (The Brigham and Women's Hospital, Inc., priority 1999, dated 2003).
Values joined by “and” are separate entries in the source; they are usually repeats but may differ in a detail not shown here. Equal entries are not always repeated. “Also recorded” adds a separate entry of the source.

Key:
PI3K = assay: p-Tyr- and IRS-1-associated PI3K activity (immunoprecipitate); assay type: cell-based, human; conditions: p-Tyr and IRS-1 immunoprecipitate
[1] = tested on: mouse cremaster muscle venules; assay: Model of vascular injury: ischemia and reperfusion in the mouse cremaster muscle (leukocyte rolling and adhesion); assay type: in vivo; conditions: mice with 1.5 mg slow-release E2 tablets s.c.
Protocol: Mice were anesthetized and the cremaster muscle was studied under intravital microscopy^28. Ischemia was induced by applying pressure to supplying arteries just sufficient to stop blood flow for 30 min. In some experiments, wortmannin (100 nM) or L-NAME (0.1 mM) was applied to the cremaster muscle during the ischemic period. The pressure was released for reperfusion, and the same vessels were recorded in each animal before and after I/R. The rolling velocities of 25 leukocytes were measured in each venule; sorted and averaged for each rank to construct cumulative histograms. The velocities of 3,750 leukocytes were measured in 150 venules before and after I/R. The number of firmly adherent leukocytes was measured before and after I/R in the same 200 μm long segments of venules.

eNOS [2] = assay: eNOS activity assay (conversion of [3H]-arginine to [3H]-citrulline) in treated human endothelial cells; assay type: cell-based; conditions: for time after stimulation at which PI3-kinase/eNOS activity is stimulated / effect on E2-stimulated eNOS activity, later phase (≥15 min) or 30 min: E2 10 nM; for time after stimulation at which PI3-kinase/eNOS activity is stimulated / stimulation of eNOS activity by the substance alone: insulin 100 nM; for stimulation of eNOS activity by the substance alone: E2/αE2 10 nM; for effect on E2-stimulated eNOS activity, later phase (≥15 min) or 30 min: wortmannin 30 nM, ICI 10 μM, genistein 50 μM, PD98059 5 μM, actinomycin D 2 h pretreatment; for effect on basal eNOS activity, substance alone: no E2
Protocol: Fetal bovine serum was deprived of estrogen by charcoal-stripping. Once grown to confluence the cells were replated on 1.5% gelatin-coated flasks at 20000 cells/cm^2. […] Cell number was assessed by direct cell counting of adherent cells, after trypsin detachment, in a Neubauer hemocytometer (VWR Scientifics). The percentage of cells excluding Trypan Blue after staining with the compound was taken as a measure of cell viability.
Endothelial cells were grown to confluence on 55 cm^2 culture dishes, treated according to the indicated conditions, and harvested in ice-cold PBS containing 1 mM EDTA. The cell lysates were pelleted in a microfuge (2 minutes, 13000 rpm, 4° C.) and subsequently homogenized in a buffer containing 25 mM Tris-HCl, pH 7.4, 1 mM EDTA, 1 mM EGTA. eNOS activity was determined by measuring the conversion of [^3H]-arginine to [^3H]-citrulline. Rat cerebellum extracts, containing elevated amounts of neuronal NOS, were used as positive controls, while endothelial cell extracts incubated in the presence of the competitive eNOS inhibitor L-NAME (1 mM) served as negative controls.
Human and bovine aortic endothelial cells were harvested enzymatically with Type IA collagenase (1 mg/mL).

ERK 1 and 2 = assay: Immunoblotting of ERK 1/2 phosphorylation; assay type: cell-based, human; conditions: E2 10 nM, from 2 minutes
Protocol: (§1) After the different treatments, serum-starved endothelial cells were rinsed once with ice-cold PBS before addition of the lysis buffer (100 mM Tris-HCl, pH 6.8, 4% SDS, 20% glycerol, 1 mM sodium orthovanadate, 1 mM NaF, and 1 mM phenylmethylsulfonylfluoride) to the dishes on an ice tray. The cell lysates were scraped, boiled, and centrifuged for 2 min at 13000 rpm. Total cell lysates (40 μg of protein) and low range molecular weight markers (BIO-RAD, Hercules, Calif.) were separated by SDS-polyacrylamide gel electrophoresis (12% running, 4% stacking), electrophoretically transferred to polyvinylidene fluoride membranes (Immobilon P, 0.45 μm pore size) and incubated overnight at 4° C. with blocking solution (5% skim milk in TBS—0.1% Tween 20). Affinity-purified rabbit antibodies (0.4 μg of IgG/ml) vs. Akt, (Ser 473) phospho-Akt or (Thr 308) phospho-Akt (New England BioLabs, Beverly, Mass.), Erk1/2, (Tyr 204) phospho-Erk-1/-2 (Calbiochem, San Diego, Calif.) were incubated with the membranes overnight at 4° C. in TBS—0.1% Tween 20 containing 5% BSA. The blots were washed three times with TBS—0.1% Tween 20 and then treated with donkey anti-rabbit antibody (1:4000 dilution) coupled to horseradish peroxidase. Immunodetection was accomplished using the enhanced chemoluminescence kit (ECL Kit, Amersham Corp.).

[3] = Serum E2 level in mice implanted with E2 tablets; assay type: in vivo, mouse; conditions: mice implanted s.c. with 1.5 mg slow-release E2 tablets, 3-5 days
PtdIns-3,4,5-P3 = assay: Endogenous PtdIns-3,4,5-P3 levels in non-transfected human endothelial cells; assay type: cell-based; conditions: E2 10 nM, insulin 100 nM
Akt/PKB = assay: Immunoblotting of Akt phosphorylation (Thr 308, Ser 473); assay type: cell-based, human
Protocol: as §1

eNOS [4] = assay: E2-stimulated eNOS activity in transfected murine fibroblasts; conditions: murine fibroblasts transfected with ERα and eNOS cDNAs
ER-α / PI3-kinase p85α = biological target: T1, ER-α / PI3-kinase p85α (Homo sapiens, UniProt P03372); assay: ER-α immunoprecipitation: co-precipitated p85α and associated PI3-kinase activity; assay type: cell-based; conditions: ER-α immunoprecipitate
T1 construct: endogenous in cells; host or cells: human endothelial cells (HSVEC), anti-ERα immunoprecipitate
T1 sequence (P03372 1-595): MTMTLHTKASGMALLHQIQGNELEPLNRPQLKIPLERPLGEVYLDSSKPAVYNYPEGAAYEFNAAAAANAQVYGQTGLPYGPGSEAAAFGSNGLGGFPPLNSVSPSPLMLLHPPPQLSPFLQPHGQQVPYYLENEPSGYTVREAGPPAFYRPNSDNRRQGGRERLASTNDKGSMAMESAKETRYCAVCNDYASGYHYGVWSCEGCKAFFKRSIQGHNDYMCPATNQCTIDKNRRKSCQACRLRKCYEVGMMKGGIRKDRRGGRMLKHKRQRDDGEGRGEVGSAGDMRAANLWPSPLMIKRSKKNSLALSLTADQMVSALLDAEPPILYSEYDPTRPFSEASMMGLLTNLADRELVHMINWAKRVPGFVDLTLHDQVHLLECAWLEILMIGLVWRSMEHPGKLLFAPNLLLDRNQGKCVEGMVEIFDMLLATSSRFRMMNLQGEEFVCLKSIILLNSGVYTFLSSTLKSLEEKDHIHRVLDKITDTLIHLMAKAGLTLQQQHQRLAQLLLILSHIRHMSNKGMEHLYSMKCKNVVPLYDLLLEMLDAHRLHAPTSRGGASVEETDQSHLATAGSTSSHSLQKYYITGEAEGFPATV

[5] = E2/αE2 10 nM, insulin 100 nM, 20 min

In the case of 17β-estradiol [E2], the “p-Tyr- or IRS-1-associated PI3K activity” value (PI3K) is reported as “did not increase”, the “changes in leukocyte accumulation and rolling velocity following I/R” value [1] is reported as “prevented” and the “lowest concentration increasing eNOS activity” value (eNOS [2]; 30 min treatment of HSVEC) is reported as 10 pM. For the same compound, the EC50 (eNOS [2]; E2 10 pM-1 μM, 30 min, human endothelial cells, read-out: EC50 value for increase in eNOS activity) was ~100 pM and 100 pM, the “time after stimulation at which PI3-kinase/eNOS activity is stimulated” value (eNOS [2]) was greater than 15 min and the “stimulation of eNOS activity by the substance alone” value (“stimulation of eNOS activity” for short) (eNOS [2]; 30 min) was “increases eNOS activity; also recorded: biphasic increase in eNOS activity; also recorded: marked increase”. The “time of maximum effect on PI3-kinase and eNOS activity” value (eNOS [2]; after stimulation) was 15 to 20 min, the “phosphorylation of ERK 1 and 2” value (ERK 1 and 2) was “increased phosphorylation” and the “serum E2 level” value [3] was 760 ± 30 pg/mL. For the same compound, the “endogenous PtdIns-3,4,5-P3 levels” value (PtdIns-3,4,5-P3) was “increased”, the “Akt Ser 473 phosphorylation” value (Akt/PKB; [5]) was “hyperphosphorylated after 20 minutes” and the “Akt threonine (Thr 308) phosphorylation” value (Akt/PKB; [5]) was “phosphorylated after 20 minutes; also recorded: increase in Akt phosphorylation”. For the same compound, the “increase in eNOS activity, wild-type fibroblasts” value (eNOS [4]) was 8 fold.

With `C[C@]12CC[C@@H]3c4ccc(O)cc4C[C@@H](CCCCCCCCC[S+]([O-])CCCC(F)(F)C(F)(F)F)[C@H]3[C@@H]1CC[C@@H]2O` (stereo partly shown) [ICI 187,780] the “effect on E2-stimulated eNOS activity, later phase (≥15 min) or 30 min” value (eNOS [2]) was “complete blockade; also recorded: completely blocked”, the “effect on E2-stimulated eNOS activity, later phase (≥15 min) or 30 min” value (eNOS [2]; listed as ICI 182,780) was “completely blocked” and the “effect on basal eNOS activity, substance alone” value (eNOS [2]) was “neither wortmannin nor ICI 187,780 alone affected basal eNOS activity”. The “effect on basal eNOS activity, substance alone” value (eNOS [2]; listed as ICI 182,780) was “did not produce any effect”, the “effect on E2-induced Akt Ser 473 phosphorylation” value (Akt/PKB; ICI 10 μM, wortmannin 30 nM) was “not inhibited” and the “effect on E2-induced Akt Thr 308 phosphorylation” value (Akt/PKB; ICI 10 μM, wortmannin 30 nM) was “blocked”.

For “insulin: known activator of the PI3-kinase/Akt pathway”, the “p-Tyr- or IRS-1-associated PI3K activity” value (PI3K) was “increases”, the “time after stimulation at which PI3-kinase/eNOS activity is stimulated” value (eNOS [2]) was no more than 2 min and the “stimulation of eNOS activity” value (eNOS [2]; 30 min) was “marked increase; also recorded: able to stimulate”. The “stimulation of eNOS activity” value (eNOS [2]; 30 min, listed as Insulin) was “activates eNOS activity”, the “endogenous PtdIns-3,4,5-P3 levels” value (PtdIns-3,4,5-P3) was “rapidly increased” and the “stimulation of ER-α-associated PI3-kinase activity” value (ER-α / PI3-kinase p85α) was “did not increase or augment”.
